Test results from the supplement of paper PMC4862054.

How the values were obtained:
Conditions in all cases: incubation time: 72 h
HCC1143 [1] = experiment: normalised response (% of control), CellTox Green; higher = less cell death (100 = DMSO, 0 = benzethonium chloride kill control)
Procedure, shortened: (§1)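 For each plate, 0.1 % DMSO was set to 100 and a positive kill control to 0. Breast cancer cell lines (20 µl suspension) were seeded into 384-well plates already holding compound at 5 concentrations in 10-fold steps over a 10,000-fold range chosen per compound, and incubated for 72 h. CellTox Green fluorescence at 485/520 nm was read before CellTiter-Glo luminescence, which followed 10 min at room temperature. Each value is the normalised signal at one concentration.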

CAL-120 [2] = experiment: as above
Procedure, shortened: as §1

MDA-MB-231 [3] = experiment: as above
Procedure, shortened: as §1

HCC1599 [4] = experiment: as above
Procedure, shortened: as §1

Hs578T [5] = experiment: as above
Procedure, shortened: as §1

CAL-85-1 [6] = experiment: as above
Procedure, shortened: as §1

MDA-MB-468 [7] = experiment: as above
Procedure, shortened: as §1

DU-4475 [8] = experiment: as above
Procedure, shortened: as §1

HCC1937 [9] = experiment: as above
Procedure, shortened: as §1

BT-474 [10] = experiment: as above
Procedure, shortened: as §1

BT-549 [11] = experiment: as above
Procedure, shortened: as §1

CAL-148 [12] = experiment: as above
Procedure, shortened: as §1

MFM-223 [13] = experiment: as above
Procedure, shortened: as §1

MDA-MB-453 [14] = experiment: as above
Procedure, shortened: as §1

MDA-MB-436 [15] = experiment: as above
Procedure, shortened: as §1

HDQ-P1 [16] = experiment: as above
Procedure, shortened: as §1

MCF-10A [17] = experiment: as above
Procedure, shortened: as §1

CAL-51 [18] = experiment: as above
Procedure, shortened: as §1

HCC1143 [19] = experiment: normalised response (% of control), CellTiter-Glo; higher = more viable cells (100 = DMSO, 0 = benzethonium chloride kill control)
Procedure, shortened: as §1

CAL-120 [20] = experiment: as above
Procedure, shortened: as §1

MDA-MB-231 [21] = experiment: as above
Procedure, shortened: as §1

HCC1599 [22] = experiment: as above
Procedure, shortened: as §1

Hs578T [23] = experiment: as above
Procedure, shortened: as §1

CAL-85-1 [24] = experiment: as above
Procedure, shortened: as §1

MDA-MB-468 [25] = experiment: as above
Procedure, shortened: as §1

SK-BR-3 = experiment: as above
Procedure, shortened: as §1

DU-4475 [26] = experiment: as above
Procedure, shortened: as §1

HCC1937 [27] = experiment: as above
Procedure, shortened: as §1

BT-474 [28] = experiment: as above
Procedure, shortened: as §1

BT-549 [29] = experiment: as above
Procedure, shortened: as §1

CAL-148 [30] = experiment: as above
Procedure, shortened: as §1

MFM-223 [31] = experiment: as above
Procedure, shortened: as §1

MDA-MB-453 [32] = experiment: as above
Procedure, shortened: as §1

MDA-MB-436 [33] = experiment: as above
Procedure, shortened: as §1

HDQ-P1 [34] = experiment: as above
Procedure, shortened: as §1

MCF-10A [35] = experiment: as above
Procedure, shortened: as §1

CAL-51 [36] = experiment: as above
Procedure, shortened: as §1

Row | SMILES | normalised response (HCC1143 [1]) [%] | normalised response (CAL-120 [2]) [%] | normalised response (MDA-MB-231 [3]) [%] | normalised response (HCC1599 [4]) [%] | normalised response (Hs578T [5]) [%] | normalised response (CAL-85-1 [6]) [%] | normalised response (MDA-MB-468 [7]) [%] | normalised response (DU-4475 [8]) [%] | normalised response (HCC1937 [9]) [%] | normalised response (BT-474 [10]) [%] | normalised response (BT-549 [11]) [%] | normalised response (CAL-148 [12]) [%] | normalised response (MFM-223 [13]) [%] | normalised response (MDA-MB-453 [14]) [%] | normalised response (MDA-MB-436 [15]) [%] | normalised response (HDQ-P1 [16]) [%] | normalised response (MCF-10A [17]) [%] | normalised response (CAL-51 [18]) [%] | normalised response (HCC1143 [19]) [%] | normalised response (CAL-120 [20]) [%] | normalised response (MDA-MB-231 [21]) [%] | normalised response (HCC1599 [22]) [%] | normalised response (Hs578T [23]) [%] | normalised response (CAL-85-1 [24]) [%] | normalised response (MDA-MB-468 [25]) [%] | normalised response (SK-BR-3) [%] | normalised response (DU-4475 [26]) [%] | normalised response (HCC1937 [27]) [%] | normalised response (BT-474 [28]) [%] | normalised response (BT-549 [29]) [%] | normalised response (CAL-148 [30]) [%] | normalised response (MFM-223 [31]) [%] | normalised response (MDA-MB-453 [32]) [%] | normalised response (MDA-MB-436 [33]) [%] | normalised response (HDQ-P1 [34]) [%] | normalised response (MCF-10A [35]) [%] | normalised response (CAL-51 [36]) [%]
1 | CN1CCC(COc2cnc(-c3cccc(Cn4nc(-c5cccc(C#N)c5)ccc4=O)c3)nc2)CC1 (100 nM) | 101 | 98.9 | 119 | 110 | 110 | 95.1 | 157 | 97.6 | 125 | 97.9 | 149 | 103 | 101 | 107 | 99.9 | 103 | 102 | 93.3 | 93.3 | 95.8 | 101 | 102 | 104 | 93.5 | 90.9 | 82.2 | 100 | 97.7 | 92.7 | 94 | 100 | 90.5 | 85.2 | 93.1 | 98.9 | 99.3 | 74
2 | C=CCNC1=C2C[C@@H](C)C[C@H](OC)[C@H](O)[C@@H](C)/C=C(\C)[C@H](OC(N)=O)[C@@H](OC)/C=C\C=C(/C)C(=O)NC(=CC1=O)C2=O [Tanespimycin] (10 nM) |  |  |  |  |  |  |  |  |  |  |  |  |  |  |  |  |  |  | 105 | 97.9 | 101 | 94.4 | 94.4 | 100 | 94.2 | 103 | 105 | 96.5 | 90.4 | 98.3 | 96.4 | 101 | 92.8 | 92.6 | 98.2 | 105 | 120
3 | CO[C@H]1C[C@@H]2CC[C@@H](C)[C@@](O)(O2)C(=O)C(=O)N2CCCC[C@H]2C(=O)O[C@H]([C@H](C)C[C@@H]2CC[C@@H](OC(=O)C(C)(CO)CO)[C@H](OC)C2)CC(=O)[C@H](C)/C=C(\C)[C@@H](O)[C@@H](OC)C(=O)[C@H](C)C[C@H](C)/C=C/C=C/C=C/1C [Temsirolimus] (0.01 nM) |  |  |  |  |  |  |  |  |  |  |  |  |  |  |  |  |  |  | 98.1 | 99.6 | 101 | 97 | 96.7 | 106 | 106 | 101 | 103 | 97.1 | 103 | 98.3 | 110 | 101 | 108 | 99.7 | 105 | 101 | 115
4 | CO[C@H]1C[C@@H]2CC[C@@H](C)[C@@](O)(O2)C(=O)C(=O)N2CCCC[C@H]2C(=O)O[C@H]([C@H](C)C[C@@H]2CC[C@@H](OC(=O)C(C)(CO)CO)[C@H](OC)C2)CC(=O)[C@H](C)/C=C(\C)[C@@H](O)[C@@H](OC)C(=O)[C@H](C)C[C@H](C)/C=C/C=C/C=C/1C [Temsirolimus] (10 nM) | 84 | 101 | 124 | 101 | -83.2 | 95.8 | 103 | 95.5 | -57.4 | 103 | 134 | 90.9 | 75.2 | 107 | 102 | 97.4 |  | 107 | 63.9 | 67.8 | 93 | 109 | 70 | 67.9 | 62.1 | 60.7 | 74.8 | 74.4 | 83.3 | 55.1 | 62.1 | 70.7 | 53.5 | 79.9 | 77.4 | 87.7 | 55.5
5 | O=C(c1ccc(C(=O)N2CCC(N3CCCC3)CC2)c(Nc2ccccc2)c1)N1CCC(N2CCCC2)CC1 [UNC1215] (3 nM) |  |  |  |  |  |  |  |  |  |  |  |  |  |  |  |  |  |  | 87.5 | 95.3 | 99.1 | 92.1 | 99.1 | 93.7 | 101 | 99 | 97.2 | 91.7 | 94.4 | 96.6 | 91 | 94.5 | 102 | 93.6 | 97.3 | 102 | 123
6 | O=C(c1ccc(C(=O)N2CCC(N3CCCC3)CC2)c(Nc2ccccc2)c1)N1CCC(N2CCCC2)CC1 [UNC1215] (30 nM) |  |  |  |  |  |  |  |  |  |  |  |  |  |  |  |  |  |  | 97.3 | 102 | 90.2 | 118 | 103 | 96.7 | 97.4 | 100 | 97 | 96.7 | 98.7 | 97.8 | 95 | 91.4 | 91.5 | 104 | 94.3 | 103 | 77.9
7 | O=C(c1ccc(C(=O)N2CCC(N3CCCC3)CC2)c(Nc2ccccc2)c1)N1CCC(N2CCCC2)CC1 [UNC1215] (3000 nM) | 109 | 99.3 | 98 | 99.8 |  | 96.8 | 80.5 | 98.5 | 111 | 96.9 | 85.1 | 99.7 | 101 | 99.2 | 96.3 |  | 101 | 114 | 93.9 | 98 | 91.2 | 107 | 95.3 | 94.7 | 91.6 | 93.5 | 98.3 | 94 | 95 | 96.9 | 94.9 | 92.6 | 98 | 92.8 | 100 | 108 | 115
8 | C[C@]1(c2nc3c(C(N)=O)cccc3[nH]2)CCCN1 [Veliparib] (10 nM) |  |  |  |  |  |  |  |  |  |  |  |  |  |  |  |  |  |  | 105 | 102 | 99 | 92.1 | 98.8 | 106 | 108 | 110 | 104 | 101 | 103 | 100 | 98.8 | 99.7 | 109 | 99 | 98.7 | 105 | 118
9 | CC[C@]1(O)C[C@@H]2CN(CCc3c([nH]c4ccccc34)[C@@](C(=O)OC)(c3cc4c(cc3OC)N(C)[C@H]3[C@@](O)(C(=O)OC)[C@H](OC(C)=O)[C@]5(CC)C=CCN6CC[C@]43[C@@H]65)C2)C1 [Vinblastine] (1 nM) |  |  |  |  |  |  |  |  |  |  |  |  |  |  |  |  |  |  | 97.1 | 95 | 94.7 | 101 | 102 | 93 | 97.9 | 94.7 | 96.9 | 94.9 | 100 | 87.8 | 98.8 | 97.6 | 97.2 | 90.7 | 101 | 103 | 101
10 | CS(=O)(=O)c1ccc(C(=O)Nc2ccc(Cl)c(-c3ccccn3)c2)c(Cl)c1 [Vismodegib] (10 nM) |  |  |  |  |  |  |  |  |  |  |  |  |  |  |  |  |  |  | 93.9 | 95.2 | 90.8 | 100 | 95.4 | 102 | 92.9 | 105 | 96.4 | 96.4 | 90.2 | 96.4 | 91 | 94.3 | 89.4 | 91.5 | 99.4 | 90.3 | 126
